Source: patent US10308650B2, “Pesticidally active tetracyclic derivatives with sulfur containing substituents” (Syngenta Participations AG, priority 2014, dated 2019)

Columns and labels:
Type in all cases: in vivo
[1] = tested on: Diabrotica balteata (Corn Root Worm); assay: Activity against Diabrotica balteata; conditions: 96 h, application rate of 200 ppm, maize sprouts, L2 larvae, 4 days after infestation, read-out: effect in at least one of the two categories (mortality or growth inhibition)
Experimental: Example B2: Activity Against Diabrotica balteata (Corn Root Worm)
Maize sprouts placed onto an agar layer in 24-well microtiter plates were treated with aqueous test solutions prepared from 10,000 ppm DMSO stock solutions by spraying. After drying, the plates were infested with L2 larvae (6 to 10 per well). The samples were assessed for mortality and growth inhibition in comparison to untreated samples 4 days after infestation.

[2] = tested on: Euschistus heros (Neotropical Brown Stink Bug); assay: Activity against Euschistus heros; conditions: 120 h, application rate of 200 ppm, soybean leaves, N2 nymphs, 5 days after infestation, read-out: effect in at least one of the two categories (mortality or growth inhibition)
Experimental: Example B3: Activity Against Euschistus heros (Neotropical Brown Stink Bug)
Soybean leaves on agar in 24-well microtiter plates were sprayed with aqueous test solutions prepared from 10,000 ppm DMSO stock solutions. After drying the leaves were infested with N2 nymphs. The samples were assessed for mortality and growth inhibition in comparison to untreated samples 5 days after infestation.

[3] = tested on: Myzus persicae (Green Peach Aphid); assay: Activity against Myzus persicae: feeding/contact activity; conditions: foliar, 144 h, application rate of 200 ppm, sunflower leaf discs, aphid population of mixed ages, 6 days after infestation, read-out: mortality
Experimental: Example B5: Activity Against Myzus persicae (Green Peach Aphid): Feeding/Contact Activity
Sunflower leaf discs were placed onto agar in a 24-well microtiter plate and sprayed with aqueous test solutions prepared from 10,000 ppm DMSO stock solutions. After drying, the leaf discs were infested with an aphid population of mixed ages. The samples were assessed for mortality 6 days after infestation.

[4] = tested on: Myzus persicae (Green Peach Aphid); assay: Activity against Myzus persicae: systemic activity; conditions: 144 h, test rate of 24 ppm, roots of infested pea seedlings in test solution, 6 days, read-out: mortality
Experimental: Example B6: Activity Against Myzus persicae (Green Peach Aphid). Systemic Activity
Roots of pea seedlings infested with an aphid population of mixed ages were placed directly into aqueous test solutions prepared from 10,000 DMSO stock solutions. The samples were assessed for mortality 6 days after placing seedlings into test solutions.

[5] = tested on: Plutella xylostella (Diamond Back Moth); assay: Activity against Plutella xylostella; conditions: 120 h, application rate of 200 ppm, artificial diet, L2 larvae, 5 days after infestation, read-out: effect in at least one of the two categories (mortality or growth inhibition)
Experimental: Example B8: Activity Against Plutella xylostella (Diamond Back Moth)
24-well microtiter plates with artificial diet were treated with aqueous test solutions prepared from 10,000 ppm DMSO stock solutions by pipetting. After drying, the plates were infested with L2 larvae (10 to 15 per well). The samples were assessed for mortality and growth inhibition in comparison to untreated samples 5 days after infestation.

[6] = tested on: Spodoptera littoralis (Egyptian Cotton Leaf Worm); assay: Activity against Spodoptera littoralis (cotton leaf discs, spray); conditions: foliar, 72 h, application rate of 200 ppm, cotton leaf discs, L1 larvae, 3 days after infestation, read-out: control (mortality, anti-feeding effect, growth inhibition)
Experimental: Example B9: Activity Against Spodoptera littoralis (Egyptian Cotton Leaf Worm)
Cotton leaf discs were placed onto agar in 24-well microtiter plates and sprayed with aqueous test solutions prepared from 10,000 ppm DMSO stock solutions. After drying the leaf discs were infested with five L1 larvae. The samples were assessed for mortality, anti-feeding effect, and growth inhibition in comparison to untreated samples 3 days after infestation. Control of Spodoptera littoralis by a test sample is given when at least one of the categories mortality, anti-feedant effect, and growth inhibition is higher than the untreated sample.

[7] = tested on: Spodoptera littoralis (Egyptian Cotton Leaf Worm); assay: Activity against Spodoptera littoralis (lettuce, uptake by the roots from agar); conditions: 144 h, test rate of 12.5 ppm, lettuce grown on treated agar, Spodoptera eggs, 6 days after infestation, read-out: effect in at least one of the three categories (mortality, anti-feeding, or growth inhibition)
Source text: Example B10: Activity Against Spodoptera littoralis (Egyptian Cotton Leaf Worm)
Test compounds were applied by pipette from 10,000 ppm DMSO stock solutions into 24-well plates and mixed with agar. Lettuce seeds were placed onto the agar and the multi well plate was closed by another plate which contained also agar. After 7 days the compound was absorbed by the roots and the lettuce grew into the lid plate. The lettuce leaves were then cut off into the lid plate. Spodoptera eggs were pipetted through a plastic stencil onto a humid gel blotting paper and the lid plate was closed with it. The samples were assessed for mortality, anti-feedant effect and growth inhibition in comparison to untreated samples 6 days after infestation.

[8] = tested on: Bemisia tabaci (Cotton White Fly); assay: Activity against Bemisia tabaci: feeding/contact activity; conditions: foliar, 144 h, application rate of 200 ppm, cotton leaf discs, adult white flies, 6 days after incubation
Experimental: Example B1: Activity Against Bemisia tabaci (Cotton White Fly): Feeding/Contact Activity
Cotton leaf discs were placed on agar in 24-well microtiter plates and sprayed with aqueous test solutions prepared from 10,000 ppm DMSO stock solutions. After drying the leaf discs were infested with adult white flies. The samples were checked for mortality 6 days after incubation.

CCS(=O)(=O)c1cc2ncn(C)c2cc1-c1nc2cc(C(F)(F)F)ncc2n1C (single isomer, unassigned) [Compound A11, 2-(6-ethylsulfonyl-3-methyl-benzimidazol-5-yl)-3-methyl-6-(trifluoromethyl)imidazo[4,5-c]pyridine]
≥ 80%: percent effect (mortality or growth inhibition) at 200 ppm [1] | percent effect (mortality or growth inhibition) at 200 ppm [2] | mortality at 200 ppm [3] | mortality at 24 ppm [4]

CCS(=O)(=O)c1cc2c(cc1-c1nc3cc(C(F)(F)F)ncc3n1C)ncn2C (single isomer, unassigned) [Compound A12, 2-(6-ethylsulfonyl-1-methyl-benzimidazol-5-yl)-3-methyl-6-(trifluoromethyl)imidazo[4,5-c]pyridine]
≥ 80%: percent effect (mortality or growth inhibition) at 200 ppm [2] | mortality at 200 ppm [3] | mortality at 24 ppm [4] | percent effect (mortality or growth inhibition) at 200 ppm [5]

CCS(=O)(=O)c1cc2nc(C)n(C)c2cc1-c1nc2cc(C(F)(F)F)ncc2n1C (single isomer, unassigned) [Compound A14, 2-(6-ethylsulfonyl-2,3-dimethyl-benzimidazol-5-yl)-3-methyl-6-(trifluoromethyl)imidazo[4,5-c]pyridine]
≥ 80%: percent effect (mortality or growth inhibition) at 200 ppm [2] | mortality at 200 ppm [3]

CCS(=O)(=O)c1cc2c(cc1-c1nc3cc(C(F)(F)F)ncc3n1C)nc(C)n2C (single isomer, unassigned) [Compound A15, 2-(6-ethylsulfonyl-1,2-dimethyl-benzimidazol-5-yl)-3-methyl-6-(trifluoromethyl)imidazo[4,5-c]pyridine]
≥ 80%: percent effect (mortality or growth inhibition) at 200 ppm [2] | mortality at 200 ppm [3] | mortality at 24 ppm [4] | percent effect (mortality or growth inhibition) at 200 ppm [5]

CCSc1cc2ccccc2cc1-c1nc2cc(C(F)(F)F)cnc2n1C [Compound A1, 2-(3-ethylsulfanyl-2-naphthyl)-3-methyl-6-(trifluoromethyl)imidazo[4,5-b]pyridine]
≥ 80%: percent effect (mortality or growth inhibition) at 200 ppm [1] | percent effect (mortality or growth inhibition) at 200 ppm [2]

CC[S+]([O-])c1cc2ccccc2cc1-c1nc2cc(C(F)(F)F)cnc2n1C (centres unmarked) [Compound A2, 2-(3-ethylsulfinyl-2-naphthyl)-3-methyl-6-(trifluoromethyl)imidazo[4,5-b]pyridine]
≥ 80%: percent effect (mortality or growth inhibition) at 200 ppm [1] | percent effect (mortality or growth inhibition) at 200 ppm [2]

CCS(=O)(=O)c1cc2nc(-c3ccccc3)[nH]c2cc1-c1nc2cc(C(F)(F)F)ncc2n1C [Compound A16, 2-(6-ethylsulfonyl-2-phenyl-3H-benzimidazol-5-yl)-3-methyl-6-(trifluoromethyl)imidazo[4,5-c]pyridine]
≥ 80%: percent effect (mortality or growth inhibition) at 200 ppm [5]

CCS(=O)(=O)c1cc2nn[nH]c2cc1-c1nc2cc(C(F)(F)F)ncc2n1C [Compound A17, 2-(6-ethylsulfonyl-3H-benzotriazol-5-yl)-3-methyl-6-(trifluoromethyl)imidazo[4,5-c]pyridine]
≥ 80%: percent effect (mortality or growth inhibition) at 200 ppm [2]

CCS(=O)(=O)c1cc2nc(C)sc2cc1-c1nc2cc(C(F)(F)F)ncc2n1C [Compound A19, 5-ethylsulfonyl-2-methyl-6-[3-methyl-6-(trifluoromethyl)imidazo[4,5-c]pyridin-2-yl]-1,3-benzothiazole]
≥ 80%: percent effect (mortality or growth inhibition) at 200 ppm [1] | percent effect (mortality or growth inhibition) at 200 ppm [2] | mortality at 200 ppm [3] | mortality at 24 ppm [4] | mortality at 200 ppm [6] | percent effect (mortality, anti-feeding or growth inhibition) at 12.5 ppm [7]

CCS(=O)(=O)c1cc2nccnc2cc1-c1nc2cc(C(F)(F)F)ncc2n1C [Compound A20, 6-ethylsulfonyl-7-[3-methyl-6-(trifluoromethyl)imidazo[4,5-c]pyridin-2-yl]quinoxaline]
≥ 80%: percent effect (mortality or growth inhibition) at 200 ppm [1] | mortality at 24 ppm [4]

CCSc1cc2cnccc2cc1-c1nc2cc(C(F)(F)F)ncc2n1C [Compound A25, 7-ethylsulfanyl-6-[3-methyl-6-(trifluoromethyl)imidazo[4,5-c]pyridin-2-yl]isoquinoline]
≥ 80%: percent effect (mortality or growth inhibition) at 200 ppm [1] | percent effect (mortality or growth inhibition) at 200 ppm [2]

CCS(=O)(=O)c1cc2cnccc2cc1-c1nc2cc(C(F)(F)F)ncc2n1C [Compound A26, 7-ethylsulfonyl-6-[3-methyl-6-(trifluoromethyl)imidazo[4,5-c]pyridin-2-yl]isoquinoline]
≥ 80%: percent effect (mortality or growth inhibition) at 200 ppm [2]

CCS(=O)(=O)c1cc2c[n+]([O-])ccc2cc1-c1nc2cc(C(F)(F)F)ncc2n1C [Compound A27, 7-ethylsulfonyl-6-[3-methyl-6-(trifluoromethyl)imidazo[4,5-c]pyridin-2-yl]-2-oxido-isoquinolin-2-ium]
≥ 80%: mortality at 200 ppm [8] | percent effect (mortality or growth inhibition) at 200 ppm [2] | mortality at 200 ppm [3] | mortality at 24 ppm [4]

CCS(=O)(=O)c1cc2ncsc2cc1-c1nc2cc(C(F)(F)F)ncc2n1C [Compound A30, 5-ethylsulfonyl-6-[3-methyl-6-(trifluoromethyl)imidazo[4,5-c]pyridin-2-yl]-1,3-benzothiazole]
≥ 80%: percent effect (mortality or growth inhibition) at 200 ppm [1] | percent effect (mortality or growth inhibition) at 200 ppm [2] | percent effect (mortality or growth inhibition) at 200 ppm [5]

CCS(=O)(=O)c1cc2[nH]c(C(F)(F)F)nc2nc1-c1nc2cc(C(F)(F)F)ncc2n1C [Compound A34, 6-ethylsulfonyl-5-[3-methyl-6-(trifluoromethyl)imidazo[4,5-c]pyridin-2-yl]-2-(trifluoromethyl)-1H-imidazo[4,5-b]pyridine]
≥ 80%: percent effect (mortality or growth inhibition) at 200 ppm [1] | percent effect (mortality or growth inhibition) at 200 ppm [2] | mortality at 24 ppm [4]

CCS(=O)(=O)c1cc2nnn(C)c2cc1-c1nc2cc(C(F)(F)F)ncc2n1C [Compound A35, 5-ethylsulfonyl-1-methyl-6-[3-methyl-6-(trifluoromethyl)imidazo[4,5-c]pyridin-2-yl]benzotriazole]
≥ 80%: percent effect (mortality or growth inhibition) at 200 ppm [1] | mortality at 200 ppm [3] | mortality at 24 ppm [4]

CCS(=O)(=O)c1cc2c(cc1-c1nc3cc(C(F)(F)F)ncc3n1C)nnn2C [Compound A36, 6-ethylsulfonyl-1-methyl-5-[3-methyl-6-(trifluoromethyl)imidazo[4,5-c]pyridin-2-yl]benzotriazole]
≥ 80%: percent effect (mortality or growth inhibition) at 200 ppm [1] | percent effect (mortality or growth inhibition) at 200 ppm [2] | mortality at 200 ppm [3] | mortality at 24 ppm [4] | percent effect (mortality or growth inhibition) at 200 ppm [5]

CCS(=O)(=O)c1cc2cc(C#N)ccc2nc1-c1nc2cc(C(F)(F)F)ncc2n1C [Compound A50, 3-ethylsulfonyl-2-[3-methyl-6-(trifluoromethyl)imidazo[4,5-c]pyridin-2-yl]quinoline-6-carbonitrile]
≥ 80%: mortality at 200 ppm [8] | percent effect (mortality or growth inhibition) at 200 ppm [1] | percent effect (mortality or growth inhibition) at 200 ppm [2] | mortality at 200 ppm [3] | percent effect (mortality or growth inhibition) at 200 ppm [5] | mortality at 200 ppm [6] | percent effect (mortality, anti-feeding or growth inhibition) at 12.5 ppm [7]
